12 compounds from patent US20250296971A1, “GASTRIC INHIBITORY PEPTIDE RECEPTOR LIGANDS” (priority 2021, published 2025) can be followed below.

*1 amine or outer side, *2 acyl side, *3 side chain or, on linkers, in order; H or OH if unused. Where a SMILES comes first, the peptide text is derived from it. Bridges are numbered along the chain shown (N, C = ends). Side-chain parts run from the residue outwards. [ ]: non-standard residue; d: D form. The star is where a group is joined. X16 = NC(=O)[C@H](CCCCNC(=O)CN1CCN2CCN3CCN(CC1)CC(=O)[O][Lu]([O]C(=O)C2)[O]C(=O)C3)NC(=O)CCC(=O)NCCCOCCOCCOCCCN*; DOTA(Lu) = O=C1CN2CCN3CCN(CC(=O)*)CCN(CC2)CC(=O)[O][Lu]([O]1)[O]C(=O)C3; X18 = O=C(CCN(CC(=O)[*:2])[*:1])NC[C@H](O)[C@@H](O)[C@H](O)[C@H](O)CO; NH(1-deoxy-D-glucityl) = OC[C@@H](O)[C@@H](O)[C@H](O)[C@@H](O)CN*; Pro(trans-4-NH2) = O=C([C@@H]1C[C@@H](N[*:3])CN1[*:1])[*:2]; Trp(5-Cl) = N[C@@H](Cc1c[nH]c2ccc(Cl)cc12)C(=O)O; Pyridine(2,6-diCH2) = c1cc(C[*:1])nc(C[*:2])c1; X24 = OC[C@H](CSCc1cccc(C[*:1])n1)N[*:2]; 1Nal = N[C@@H](Cc1cccc2ccccc12)C(=O)O; mXylylene = c1cc(C[*:1])cc(C[*:2])c1; Glutaryl = O=C(CCCC(=O)[*:2])[*:1]; X6 = c1cc(CSCCN[*:2])nc(C[*:1])c1; Hyp = O=C(O)[C@@H]1C[C@@H](O)CN1; X1 = O=C(CN1CCC(N[*:1])CC1)[*:2]; Suc = O=C(CCC(=O)[*:2])[*:1]; Ac6c = NC1(C(=O)O)CCCCC1; Api = NC1(C(=O)O)CCNCC1; Thp = NC1(C(=O)O)CCOCC1; Aib = CC(C)(N)C(=O)O; Sar = CNCC(=O)O

For the first assay, the target named is T1, GIPR (CHO-K1-hGIPR cells) (Homo sapiens, UniProt P48546).
T1 construct: host or cells: CHO-K1
T1 sequence (P48546 22-466): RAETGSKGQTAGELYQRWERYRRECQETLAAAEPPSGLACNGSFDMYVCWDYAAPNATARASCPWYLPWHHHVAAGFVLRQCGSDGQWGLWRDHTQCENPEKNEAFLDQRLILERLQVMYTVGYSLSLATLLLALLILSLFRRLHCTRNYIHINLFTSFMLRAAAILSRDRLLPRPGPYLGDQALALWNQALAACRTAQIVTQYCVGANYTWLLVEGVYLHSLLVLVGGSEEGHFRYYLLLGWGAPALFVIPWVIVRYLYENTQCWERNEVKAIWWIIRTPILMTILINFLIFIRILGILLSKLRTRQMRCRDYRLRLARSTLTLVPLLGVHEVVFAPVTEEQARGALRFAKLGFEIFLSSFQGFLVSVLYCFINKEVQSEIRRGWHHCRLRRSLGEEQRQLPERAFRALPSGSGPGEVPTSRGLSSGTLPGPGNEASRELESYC
Briefly: FACS binding assay. Particulars: competition with 20 nM GIP-057, 4° C., 1 hour, read-out: pIC50 Category (converted). The method in brief:
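Steps: detach CHO-K1-hGIPR cells (Accutase); wash in PBS/1% FCS; adjust to 500.000 cells per mL; wash ice-cold; incubate APC-streptavidin 1 μg/mL, 30 min on ice; wash twice; acquire on flow cytometer; fit MFI-concentration data with a four-parameter logistic model.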
Consider `CC[C@H](C)[C@@H]1NC(=O)[C@H](CC(C)C)NC(=O)C2(CCOCC2)NC(=O)[C@@H](NC(=O)[C@@H](CC(C)C)NC(=O)[C@H](CCC(=O)O)NC(=O)[C@@H]2C[C@@H](O)CN2C(=O)[C@H](Cc2c[nH]c3ccc(Cl)cc23)NC(=O)[C@H](Cc2c[nH]c3ccccc23)NC(=O)[C@H](CC(=O)O)NC(=O)CCCC(=O)NC[C@H](O)[C@@H](O)[C@H](O)[C@H](O)CO)CSCc2cccc(n2)CSC[C@@H](C(=O)NC2CCN(CC(=O)N[C@H](CCC(=O)NC[C@H](O)[C@@H](O)[C@H](O)[C@H](O)CO)C(N)=O)CC2)NC1=O` [GIP-174, AGLU-Glutar-Asp-Trp-5Clw-Hyp-Glu-leu-[Cys(2Lut)-Thp-Leu-Ile-Cys]-APAc-glu(AGLU)-NH2] ({NH(1-deoxy-D-glucityl)-Glutaryl}-DW[Trp(5-Cl)][Hyp]E[dL]C[Thp]LIC[X1][dE](NH(1-deoxy-D-glucityl))-NH2; linker 7-11 via Pyridine(2,6-diCH2)), for which the IC50 is less than 10 nM. Still for that read-out and setting: the figure for `CC[C@H](C)[C@@H]1NC(=O)[C@H](CC(C)C)NC(=O)C2(CCOCC2)NC(=O)[C@@H](NC(=O)[C@@H](CC(C)C)NC(=O)[C@H](CCC(=O)O)NC(=O)[C@@H]2C[C@@H](NC(=O)CCCC(=O)NC[C@H](O)[C@@H](O)[C@H](O)[C@H](O)CO)CN2C(=O)[C@H](Cc2c[nH]c3ccc(Cl)cc23)NC(=O)[C@H](Cc2c[nH]c3ccccc23)NC(=O)[C@H](CC(=O)O)NC(C)=O)CSCc2cccc(n2)CSC[C@@H](C(N)=O)NC1=O` [GIP-175, Ac-Asp-Trp-5Clw-Tap (AGLU-Glutar)-Glu-leu-[Cys(2Lut)-Thp-Leu-Ile-Cys]-NH2] (Ac-DW[Trp(5-Cl)][Pro(trans-4-NH2)]([Glutaryl-NH(1-deoxy-D-glucityl)])E[dL]C[Thp]LIC-NH2; linker 7-11 via Pyridine(2,6-diCH2)) is less than 10 nM. On the same count and under the same terms, the figure for `CC[C@H](C)[C@@H]1NC(=O)[C@H](CC(C)C)NC(=O)C2(CCOCC2)NC(=O)[C@@H](NC(=O)[C@@H](CC(C)C)NC(=O)[C@H](CCC(=O)O)NC(=O)CN(CCC(=O)NC[C@H](O)[C@@H](O)[C@H](O)[C@H](O)CO)C(=O)[C@H](Cc2c[nH]c3ccc(Cl)cc23)NC(=O)[C@H](Cc2c[nH]c3ccccc23)NC(=O)[C@H](CC(=O)O)NC(C)=O)CSCc2cccc(n2)CSC[C@@H](C(N)=O)NC1=O` [GIP-176, Ac-Asp-Trp-5Clw-Nglu(AGLU)-Glu-leu-[Cys(2Lut)-Thp-Leu-Ile-Cys]-NH2] (Ac-DW[Trp(5-Cl)][X18]E[dL]C[Thp]LIC-NH2; linker 7-11 via Pyridine(2,6-diCH2)) is less than 10 nM.

Regarding `CC[C@H](C)[C@@H]1NC(=O)[C@H](CC(C)C)NC(=O)C2(CCOCC2)NC(=O)[C@@H](NC(=O)[C@@H](CC(C)C)NC(=O)[C@H](CCC(=O)O)NC(=O)[C@@H]2C[C@@H](O)CN2C(=O)[C@H](Cc2c[nH]c3ccc(Cl)cc23)NC(=O)[C@H](Cc2c[nH]c3ccccc23)NC(=O)[C@H](CC(=O)O)NC(C)=O)CSCc2cccc(n2)CSC[C@@H](C(=O)NC2CCN(CC(=O)N[C@H](CCC(=O)NC[C@H](O)[C@@H](O)[C@H](O)[C@H](O)CO)C(N)=O)CC2)NC1=O` [GIP-177, Ac-Asp-Trp-5Clw-Hyp-Glu-leu-[Cys(2Lut)-Thp-Leu-Ile-Cys]-APAc-glu(AGLU)-NH2] (Ac-DW[Trp(5-Cl)][Hyp]E[dL]C[Thp]LIC[X1][dE](NH(1-deoxy-D-glucityl))-NH2; linker 7-11 via Pyridine(2,6-diCH2)), the IC50 was less than 10 nM. On the same count and under the same terms, the figure for `CC[C@H](C)[C@@H]1NC(=O)[C@H](CC(C)C)NC(=O)C2(CCOCC2)NC(=O)[C@@H](NC(=O)[C@@H](CC(C)C)NC(=O)[C@H](CCC(=O)O)NC(=O)[C@@H]2C[C@@H](O)CN2C(=O)[C@H](Cc2c[nH]c3ccc(Cl)cc23)NC(=O)[C@H](Cc2c[nH]c3ccccc23)NC(=O)[C@H](CC(=O)O)NC(=O)CCCC(=O)NC[C@H](O)[C@@H](O)[C@H](O)[C@H](O)CO)CSCc2cccc(n2)CSC[C@@H](C(N)=O)NC1=O` [GIP-178, AGLU-Glutar-Asp-Trp-5Clw-Hyp-Glu-leu-[Cys(2Lut)-Thp-Leu-Ile-Cys]-NH2] ({NH(1-deoxy-D-glucityl)-Glutaryl}-DW[Trp(5-Cl)][Hyp]E[dL]C[Thp]LIC-NH2; linker 7-11 via Pyridine(2,6-diCH2)) is less than 10 nM; for `CC[C@H](C)[C@@H]1NC(=O)[C@H](CC(C)C)NC(=O)C2(CCOCC2)NC(=O)[C@@H](NC(=O)[C@@H](CC(C)C)NC(=O)[C@H](CCC(=O)O)NC(=O)[C@@H]2C[C@@H](O)CN2C(=O)[C@H](Cc2c[nH]c3ccc(Cl)cc23)NC(=O)[C@H](Cc2c[nH]c3ccccc23)NC(=O)[C@H](CC(=O)O)NC(C)=O)CSCc2cccc(n2)CSC[C@@H](C(N)=O)NC1=O` [GIP-180, Ac-Asp-Trp-5Clw-Hyp-Glu-leu-[Cys(2Lut)-Thp-Leu-Ile-Cys]-NH2] (Ac-DW[Trp(5-Cl)][Hyp]E[dL]C[Thp]LIC-NH2; linker 7-11 via Pyridine(2,6-diCH2)) it is less than 10 nM; for `CC[C@H](C)[C@@H]1NC(=O)[C@H](CC(C)C)NC(=O)C2(CCOCC2)NC(=O)[C@@H](NC(=O)[C@@H](CC(C)C)NC(=O)[C@H](CCC(=O)O)NC(=O)[C@@H]2C[C@@H](O)CN2C(=O)[C@H](Cc2c[nH]c3ccc(Cl)cc23)NC(=O)[C@H](Cc2c[nH]c3ccccc23)NC(=O)[C@H](CC(=O)O)NC(C)=O)CSCc2cccc(n2)CSC[C@@H](CO)NC1=O` [GIP-182, Ac-Asp-Trp-5Clw-Hyp-Glu-leu-[Cys(2Lut)-Thp-Leu-Ile-Cysol]-OH] (Ac-DW[Trp(5-Cl)][Hyp]E[dL]C[Thp]LI; linker 7-C via X24) it is less than 10 nM. Same read-out and setting: the figure for `CC[C@H](C)[C@@H]1NC(=O)[C@H](CC(C)C)NC(=O)C2(CCOCC2)NC(=O)[C@@H](NC(=O)[C@@H](CC(C)C)NC(=O)[C@H](CCC(=O)O)NC(=O)CN(C)C(=O)[C@H](Cc2c[nH]c3ccc(Cl)cc23)NC(=O)[C@H](Cc2c[nH]c3ccccc23)NC(=O)[C@H](CC(=O)O)NC(C)=O)CSCc2cccc(n2)CSC[C@@H](C(N)=O)NC1=O` [GIP-183, Ac-Asp-Trp-5Clw-Nmg-Glu-leu-[Cys(2Lut)-Thp-Leu-Ile-Cys]-NH2] (Ac-DW[Trp(5-Cl)][Sar]E[dL]C[Thp]LIC-NH2; linker 7-11 via Pyridine(2,6-diCH2)) is less than 10 nM.

Still in this assay, the particulars now being: pIC50 Category, competition with 20 nM GIP-057, 4° C., 1 hour.
`CC[C@H](C)[C@@H]1NC(=O)[C@H](CC(C)C)NC(=O)C2(CCOCC2)NC(=O)[C@@H](NC(=O)[C@@H](CC(C)C)NC(=O)[C@H](CCC(=O)O)NC(=O)[C@@H]2C[C@@H](O)CN2C(=O)[C@H](Cc2c[nH]c3ccc(Cl)cc23)NC(=O)[C@H](Cc2c[nH]c3ccccc23)NC(=O)CCC(=O)O)CSCc2cccc(n2)CSC[C@@H](C(=O)NC2CCN(CC(=O)N[C@@H](CCCCNC(=O)CN3CCN4CCN5CCN(CC3)CC(=O)[O][Lu]([O]C(=O)C4)[O]C(=O)C5)C(N)=O)CC2)NC1=O` [GIP-170, HO-Succinyl-Trp-5Clw-Hyp-Glu-leu-[Cys(2Lut)-Thp-Leu-Ile-Cys]-APAc-Lys(LuDOTA)-NH2] (Suc-W[Trp(5-Cl)][Hyp]E[dL]C[Thp]LIC[X1]K(DOTA(Lu))-NH2; linker 6-10 via Pyridine(2,6-diCH2)) registered an IC50 of less than 10 nM. Same read-out and setting: for `CC[C@H](C)[C@@H]1NC(=O)[C@H](CC(C)C)NC(=O)C2(CCN(C(=O)CN3CCN4CCN5CCN(CC3)CC(=O)[O][Lu]([O]C(=O)C5)[O]C(=O)C4)CC2)NC(=O)[C@@H](NC(=O)[C@@H](CC(C)C)NC(=O)[C@H](CCC(=O)O)NC(=O)[C@@H]2C[C@@H](O)CN2C(=O)[C@H](Cc2c[nH]c3ccc(Cl)cc23)NC(=O)[C@H](Cc2c[nH]c3ccccc23)NC(=O)CCC(=O)O)CSCc2cccc(n2)CSCCNC1=O` [GIP-171, HO-Succinyl-Trp-5Clw-Hyp-Glu-leu-[Cys(2Lut)-Apc(LuDOTA)-Leu-Ile-AET]] (Suc-W[Trp(5-Cl)][Hyp]E[dL]C[Api](DOTA(Lu))LI; linker 6-C via X6) the value was less than 10 nM. Same read-out and setting: for `CC[C@H](C)[C@@H]1NC(=O)[C@H](CC(C)C)NC(=O)C(C)(C)NC(=O)[C@@H](NC(=O)[C@@H](CC(C)C)NC(=O)[C@H](CCC(=O)O)NC(=O)[C@@H]2CCCN2C(=O)[C@H](Cc2cccc3ccccc23)NC(=O)[C@H](Cc2c[nH]c3ccccc23)NC(=O)[C@H](CC(=O)O)NC(C)=O)CSCc2cccc(c2)CSC[C@@H](C(=O)NCCCOCCOCCOCCCNC(=O)CCC(=O)N[C@@H](CCCCNC(=O)CN2CCN3CCN4CCN(CC2)CC(=O)[O][Lu]([O]C(=O)C3)[O]C(=O)C4)C(N)=O)NC1=O` [GIP-172, Ac-Asp-Trp-1Ni-Pro-Glu-leu-[Cys(3MeBn)-Aib-Leu-Ile-Cys]-Ttds-Lys(LuDOTA)-NH2] (Ac-DW[1Nal]PE[dL]C[Aib]LIC-X16; linker 7-11 via mXylylene) the value was 10 to 79.4 nM; for `CC[C@H](C)[C@@H]1NC(=O)[C@H](CC(C)C)NC(=O)C2(CCCCC2)NC(=O)[C@@H](NC(=O)[C@@H](CC(C)C)NC(=O)[C@H](CCC(=O)O)NC(=O)[C@@H]2CCCN2C(=O)[C@H](Cc2cccc3ccccc23)NC(=O)[C@H](Cc2c[nH]c3ccccc23)NC(=O)[C@H](CC(=O)O)NC(C)=O)CSCc2cccc(c2)CSC[C@@H](C(=O)NCCCOCCOCCOCCCNC(=O)CCC(=O)N[C@@H](CCCCNC(=O)CN2CCN3CCN4CCN(CC2)CC(=O)[O][Lu]([O]C(=O)C3)[O]C(=O)C4)C(N)=O)NC1=O` [GIP-173, Ac-Asp-Trp-1Ni-Pro-Glu-leu-[Cys(3MeBn)-Egz-Leu-Ile-Cys]-Ttds-Lys(LuDOTA)-NH2] (Ac-DW[1Nal]PE[dL]C[Ac6c]LIC-X16; linker 7-11 via mXylylene), 10 to 79.4 nM.
